Assay results taken from ChEMBL document CHEMBL5154788 (Eur J Med Chem, 2022).
In brackets after ≈: the same amount, converted by molar mass. Each block holds one compound with its values, some of them ahead of it.

Experiments:
[1] = biological target: Transient receptor potential cation channel subfamily V member 1 (Homo sapiens, UniProt Q8NER1); assay: Antagonist activity at human TRPV1 expressed in CHO cells assessed as inhibition of capsaicin-induced Ca2+ influx incubated for 30 mins by FLIPR method; type: cell-based
[2] = Oral bioavailability in Sprague-Dawley rat at 20 mg/kg measured after 12 hrs by UPLC-QTOF/MS analysis; type: ADME, organism-based; conditions: in vivo
[3] = Cmax in Sprague-Dawley rat at 20 mg/kg, po measured after 12 hrs by UPLC-QTOF/MS analysis; type: ADME, organism-based; set-up: dose 20 mg/kg, time 12 hrs, route po; conditions: in vivo
[4] = AUC (0 to infinity) in Sprague-Dawley rat at 20 mg/kg, po by UPLC-QTOF/MS analysis; type: ADME, organism-based; set-up: time infinity, dose 20 mg/kg, route po; conditions: in vivo
[5] = Volume of distribution in Sprague-Dawley rat at 20 mg/kg, po measured after 12 hrs post dose by UPLC-QTOF/MS analysis; type: ADME, organism-based; conditions: in vivo
[6] = Drug concentration in rat plasma at 10 mg/kg, iv measured after 0.5 hrs by HPLC analysis; type: ADME, organism-based
[7] = MRT in Sprague-Dawley rat at 20 mg/kg, po measured after 12 hrs by UPLC-QTOF/MS analysis; type: ADME, organism-based; conditions: in vivo
[8] = Clearance in Sprague-Dawley rat at 20 mg/kg, po measured after 12 hrs by UPLC-QTOF/MS analysis; type: ADME, organism-based; conditions: in vivo
[9] = Toxicity in rat assessed as increase in body temperature at 30 mg/kg, po measured for 180 mins by electric probe thermometer analysis; type: organism-based; conditions: in vivo, 3 h
[10] = Clearance in Sprague-Dawley rat at 10 mg/kg, iv measured after 12 hrs by UPLC-QTOF/MS analysis; type: ADME, organism-based; conditions: in vivo
[11] = Elimination rate constant half life (k10) in Sprague-Dawley rat at 20 mg/kg, po measured after 12 hrs by UPLC-QTOF/MS analysis; type: ADME, organism-based; conditions: in vivo, read-out: beta t1/2 (converted)
[12] = MRT in Sprague-Dawley rat at 10 mg/kg, iv measured after 12 hrs by UPLC-QTOF/MS analysis; type: ADME, organism-based; conditions: in vivo
[13] = biological target: Transient receptor potential cation channel subfamily A member 1 (Homo sapiens, UniProt O75762); assay: Antagonist activity against human TRPA1 expressed in HEK293 cells assessed as inhibition of AITC-induced intracellular calcium accumulation incubated for 30 mins by FLIPR assay; type: cell-based
[14] = Toxicity in rat assessed as effect on body temperature at 10 to 100 mg/kg, po measured for 120 mins by electric probe thermometer analysis; type: organism-based; conditions: in vivo, 2 h, dose 10-100 mg/kg
[15] = Ratio of drug level in brain to plasma in rat at 10 mg/kg, iv measured after 0.5 hrs by HPLC analysis; type: ADME, organism-based; conditions: read-out: BPR
[16] = Elimination rate constant (K10) in Sprague-Dawley rat at 20 mg/kg, po measured after 12 hrs by UPLC-QTOF/MS analysis; type: ADME, organism-based; conditions: in vivo
[17] = Tmax in Sprague-Dawley rat at 20 mg/kg, po measured after 12 hrs by UPLC-QTOF/MS analysis; type: ADME, organism-based; conditions: in vivo
[18] = Drug concentration in rat brain at 10 mg/kg, iv measured after 0.5 hrs by HPLC analysis; type: ADME, organism-based; conditions: read-out: Ct
[19] = biological target: T1, Transient receptor potential cation channel subfamily V member 3 (Homo sapiens, UniProt Q8NET8); assay: Antagonist activity against human TRPV3 expressed in HEK293 cells assessed as inhibition of 2-APb induced intracellular calcium accumulation incubated for 30 mins by FLIPR assay; type: cell-based
T1 sequence (Q8NET8 whole entry): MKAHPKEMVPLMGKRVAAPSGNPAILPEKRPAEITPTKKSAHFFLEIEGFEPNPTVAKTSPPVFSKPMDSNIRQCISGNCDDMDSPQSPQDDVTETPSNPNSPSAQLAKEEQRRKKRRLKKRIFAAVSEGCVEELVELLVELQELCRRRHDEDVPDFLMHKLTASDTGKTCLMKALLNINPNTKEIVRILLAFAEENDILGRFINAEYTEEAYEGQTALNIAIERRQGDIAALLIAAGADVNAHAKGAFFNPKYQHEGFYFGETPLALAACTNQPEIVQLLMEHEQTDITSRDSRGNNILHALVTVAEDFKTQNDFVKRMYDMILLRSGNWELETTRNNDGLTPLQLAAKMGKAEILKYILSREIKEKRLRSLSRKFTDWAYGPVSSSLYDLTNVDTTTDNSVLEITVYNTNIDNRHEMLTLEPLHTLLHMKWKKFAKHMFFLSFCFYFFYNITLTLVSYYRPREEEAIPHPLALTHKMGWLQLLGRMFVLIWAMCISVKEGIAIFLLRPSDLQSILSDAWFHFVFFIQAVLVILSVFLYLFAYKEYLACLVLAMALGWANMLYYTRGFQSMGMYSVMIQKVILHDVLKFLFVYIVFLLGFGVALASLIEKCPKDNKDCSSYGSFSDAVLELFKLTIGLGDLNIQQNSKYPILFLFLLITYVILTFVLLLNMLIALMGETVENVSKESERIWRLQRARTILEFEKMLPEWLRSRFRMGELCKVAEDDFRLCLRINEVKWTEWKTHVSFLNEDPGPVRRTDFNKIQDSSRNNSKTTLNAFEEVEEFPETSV

[20] = Half life in Sprague-Dawley rat at 10 mg/kg, iv measured after 12 hrs by UPLC-QTOF/MS analysis; type: ADME, organism-based; conditions: in vivo
[21] = Aqueous solubility of compound at pH 7.4 incubated for 2 hrs by LC-UV/MS analysis; type: physicochemical; conditions: buffer
[22] = Elimination rate constant (K10) in Sprague-Dawley rat at 10 mg/kg, iv measured after 12 hrs by UPLC-QTOF/MS analysis; type: ADME, organism-based; conditions: in vivo
[23] = AUC (0 to infinity) in Sprague-Dawley rat at 10 mg/kg, iv by UPLC-QTOF/MS analysis; type: ADME, organism-based; set-up: time infinity, dose 10 mg/kg, route iv; conditions: in vivo
[24] = biological target: Transient receptor potential cation channel subfamily M member 8 (Homo sapiens, UniProt Q7Z2W7); assay: Antagonist activity against human TRPM8 expressed in HEK293 cells assessed as inhibition of […]-gated currents by whole cell patch clamp electrophysiology; type: cell-based
Sequence of Transient receptor potential cation channel subfamily M member 8 (Q7Z2W7 whole entry): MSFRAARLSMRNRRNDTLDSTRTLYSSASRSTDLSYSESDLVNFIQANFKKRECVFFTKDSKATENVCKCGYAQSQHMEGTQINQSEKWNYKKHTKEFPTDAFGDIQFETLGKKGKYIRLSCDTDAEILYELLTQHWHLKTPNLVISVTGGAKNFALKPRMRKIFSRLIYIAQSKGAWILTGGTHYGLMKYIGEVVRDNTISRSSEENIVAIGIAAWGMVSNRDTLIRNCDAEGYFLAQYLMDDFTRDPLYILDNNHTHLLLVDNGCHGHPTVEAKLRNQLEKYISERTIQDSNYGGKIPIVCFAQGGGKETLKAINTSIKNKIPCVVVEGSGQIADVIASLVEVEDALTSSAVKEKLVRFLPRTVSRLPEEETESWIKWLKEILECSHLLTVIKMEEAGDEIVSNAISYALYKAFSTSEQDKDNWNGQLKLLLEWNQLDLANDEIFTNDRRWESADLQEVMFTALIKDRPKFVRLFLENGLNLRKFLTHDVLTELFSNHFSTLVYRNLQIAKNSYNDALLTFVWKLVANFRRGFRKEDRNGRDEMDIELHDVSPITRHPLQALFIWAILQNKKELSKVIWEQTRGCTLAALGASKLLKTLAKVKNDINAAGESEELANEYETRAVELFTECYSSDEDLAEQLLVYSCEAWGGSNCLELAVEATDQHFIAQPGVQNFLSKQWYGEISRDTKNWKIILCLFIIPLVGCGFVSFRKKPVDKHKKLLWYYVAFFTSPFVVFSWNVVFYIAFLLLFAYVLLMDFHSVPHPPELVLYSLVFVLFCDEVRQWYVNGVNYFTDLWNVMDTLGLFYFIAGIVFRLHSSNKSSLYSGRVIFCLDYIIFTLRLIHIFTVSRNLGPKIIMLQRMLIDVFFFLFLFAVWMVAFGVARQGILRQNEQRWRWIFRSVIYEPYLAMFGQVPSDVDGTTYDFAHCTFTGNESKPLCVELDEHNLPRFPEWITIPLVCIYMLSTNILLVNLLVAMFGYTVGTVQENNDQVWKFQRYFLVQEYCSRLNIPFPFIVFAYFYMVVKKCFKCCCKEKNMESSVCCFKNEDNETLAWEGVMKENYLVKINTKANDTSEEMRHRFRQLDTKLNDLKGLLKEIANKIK

Sequence of Transient receptor potential cation channel subfamily V member 1 (Q8NER1 whole entry): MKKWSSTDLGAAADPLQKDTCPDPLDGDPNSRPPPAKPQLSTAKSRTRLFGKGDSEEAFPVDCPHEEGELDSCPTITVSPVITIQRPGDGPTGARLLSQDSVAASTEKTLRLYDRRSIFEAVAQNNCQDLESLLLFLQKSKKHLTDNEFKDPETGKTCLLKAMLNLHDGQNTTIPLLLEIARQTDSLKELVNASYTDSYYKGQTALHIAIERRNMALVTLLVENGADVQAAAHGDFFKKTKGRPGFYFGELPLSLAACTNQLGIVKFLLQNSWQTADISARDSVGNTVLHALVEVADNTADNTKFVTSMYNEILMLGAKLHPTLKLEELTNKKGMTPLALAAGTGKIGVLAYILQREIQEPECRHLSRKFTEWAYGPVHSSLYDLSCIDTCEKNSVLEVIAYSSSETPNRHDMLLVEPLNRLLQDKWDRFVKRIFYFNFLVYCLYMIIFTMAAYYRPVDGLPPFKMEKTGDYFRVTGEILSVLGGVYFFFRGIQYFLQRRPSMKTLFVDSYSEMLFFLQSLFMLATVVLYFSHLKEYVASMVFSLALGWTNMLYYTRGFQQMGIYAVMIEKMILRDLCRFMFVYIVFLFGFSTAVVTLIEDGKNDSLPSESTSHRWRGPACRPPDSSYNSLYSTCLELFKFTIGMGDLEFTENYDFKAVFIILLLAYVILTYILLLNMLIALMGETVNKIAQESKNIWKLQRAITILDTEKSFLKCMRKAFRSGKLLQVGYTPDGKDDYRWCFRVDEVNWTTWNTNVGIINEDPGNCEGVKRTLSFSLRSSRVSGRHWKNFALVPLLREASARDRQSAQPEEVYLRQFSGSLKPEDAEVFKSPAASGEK
Sequence of Transient receptor potential cation channel subfamily A member 1 (O75762 whole entry): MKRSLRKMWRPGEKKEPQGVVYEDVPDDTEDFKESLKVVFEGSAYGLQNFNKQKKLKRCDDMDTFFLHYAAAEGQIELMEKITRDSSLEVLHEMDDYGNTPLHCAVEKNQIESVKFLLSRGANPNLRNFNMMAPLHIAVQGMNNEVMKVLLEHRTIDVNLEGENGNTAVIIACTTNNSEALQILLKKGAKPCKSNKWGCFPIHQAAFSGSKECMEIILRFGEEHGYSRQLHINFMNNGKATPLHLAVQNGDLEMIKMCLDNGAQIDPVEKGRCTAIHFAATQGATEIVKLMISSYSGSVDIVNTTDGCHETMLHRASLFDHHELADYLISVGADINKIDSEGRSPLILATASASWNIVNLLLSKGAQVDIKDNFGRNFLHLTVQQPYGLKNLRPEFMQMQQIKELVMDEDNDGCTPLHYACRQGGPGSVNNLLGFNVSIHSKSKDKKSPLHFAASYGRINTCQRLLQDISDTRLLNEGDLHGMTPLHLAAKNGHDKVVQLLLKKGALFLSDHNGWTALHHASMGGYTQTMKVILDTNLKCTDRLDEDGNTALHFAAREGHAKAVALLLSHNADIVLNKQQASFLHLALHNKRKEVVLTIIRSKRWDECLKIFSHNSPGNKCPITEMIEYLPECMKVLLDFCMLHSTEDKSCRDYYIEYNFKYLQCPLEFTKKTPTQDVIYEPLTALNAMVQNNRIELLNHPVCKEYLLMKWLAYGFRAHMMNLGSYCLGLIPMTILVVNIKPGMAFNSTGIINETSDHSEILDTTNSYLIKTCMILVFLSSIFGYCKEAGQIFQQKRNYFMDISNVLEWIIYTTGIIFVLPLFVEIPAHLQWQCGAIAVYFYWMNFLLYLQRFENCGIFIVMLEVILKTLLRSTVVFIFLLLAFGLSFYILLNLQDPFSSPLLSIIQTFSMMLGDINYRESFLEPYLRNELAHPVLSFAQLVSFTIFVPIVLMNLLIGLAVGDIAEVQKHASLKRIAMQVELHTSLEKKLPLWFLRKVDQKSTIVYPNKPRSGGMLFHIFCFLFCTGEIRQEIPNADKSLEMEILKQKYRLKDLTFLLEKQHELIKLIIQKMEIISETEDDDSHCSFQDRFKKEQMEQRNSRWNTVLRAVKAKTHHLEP

Compound: O=C(Nc1cccc2cnccc12)N1CCC[C@H]1c1nc(-c2ccccc2)cs1
IC50 [1]: 67.6 nM

Compound: CC(C)c1cccc(NC(=O)N2CCC[C@H]2c2ncc(-c3ccccc3)s2)c1
bioavailability [2]: 60%
Cmax [3]: 311 ng/mL
AUC [4]: 598.873 ng·h/mL
Vd [5]: 16 L/kg
concentration at 0.5 h [6]: 1400 ng/g
MRT [7]: 85.6 min
clearance [8]: 367 mL/min/kg
Activity [9]: Non-Toxic
clearance [10]: 400 mL/min/kg
half-life [11]: 31.6 min
MRT [12]: 9.18 min
IC50 [13]: > 100000 nM
IC50 [1]: 2.66 nM
Activity [14]: Non-Toxic
Kp at 0.5 h [15]: 1.66
k el at 12 h [16]: 0.000315 s⁻¹
Tmax [17]: 42.7 min
concentration at 0.5 h [18]: 2310 ng/g
IC50 [19]: > 100000 nM
half-life [20]: 6.36 min
solubility at 2 h [21]: 26 µg/mL (≈ 66.4 µM)
k el at 12 h [22]: 0.00335 s⁻¹
AUC [23]: 495.955 ng·h/mL

Compound: O=C(Nc1ccc(F)cc1)N1CCC[C@H]1c1nc(-c2ccc(F)cc2)cs1
IC50 [1]: 24.6 nM

Compound: O=C(Nc1ccccc1[N+](=O)[O-])N1CCC[C@H]1c1ncc(-c2ccccc2)s1
IC50 [1]: 12.4 nM

Compound: O=C(Nc1ccccc1Br)N[C@@H]1CCN(c2ccc(C(F)(F)F)cn2)C1 [SB-705498]
Activity [9]: Non-Toxic
IC50 [1]: 9.24 nM
Kp at 0.5 h [15]: 0.5
IC50 [24]: 1600 nM

Compound: CC(C)c1ccccc1NC(=O)N1CCC[C@H]1c1ncc(-c2ccccc2)s1
IC50 [1]: 5.32 nM

Second part, led by results:

IC50 [1]: 31.6 nM
Compound: O=C(Nc1ccc(F)cc1)N1CCC[C@H]1c1nc(-c2ccccc2)cs1

IC50 [1]: 10.7 nM
Compound: O=C(Nc1ccc(Cl)cc1)N1CCC[C@H]1c1nc(-c2ccc(F)cc2)cs1

IC50 [1]: 23.9 nM
Compound: Cc1ccc(NC(=O)N2CCC[C@H]2c2ncc(-c3ccccc3)s2)c([N+](=O)[O-])c1

IC50 [1]: 5.71 nM
Compound: COc1ccccc1NC(=O)N1CCC[C@H]1c1nc(-c2ccc(F)cc2)cs1
Activity [9]: Toxic

IC50 [1]: 80.6 nM
Compound: O=C(Nc1cccc2cnccc12)N1CCC[C@H]1c1nc(-c2cccc(F)c2)cs1

IC50 [1]: 24.3 nM
Compound: O=C(Nc1cccc2cnccc12)N1CCC[C@H]1c1nc(-c2ccc(F)cc2)cs1

IC50 [1]: 44.4 nM
Compound: Cc1ccc(C)c(NC(=O)N2CCC[C@H]2c2nc(-c3ccccc3)cs2)c1
